The text below walks through data of patent publication US20110280865A1, “Ets-2 Biomarkers for Fibrotic Diseases and Uses Thereof” (THE OHIO STATE UNIVERSITY, priority 2009, published 2011).

The assay has as its system ets-2 (WT/WT) and ets-2 (A72/A72) mice. The experiment in a line: Bronchoalveolar lavage (BAL) cell differentials after intra-peritoneal bleomycin. The assay is classed as in vivo, mouse. The following applies: mean ± S.E.M. How it is done:
Mice: Transgenic mice harboring a point mutation in Ets2 [Ets2tmA720sh, referred to as Ets2 (A72/A72)] resulting in a threonine to alanine conversion at position 72 were used. Wild type littermates (FVB/N background) were used as controls.
Bleomycin studies: Male mice, aged 6-12 weeks, underwent intra-peritoneal (IP) injection. Briefly, mice were injected with 0.035 U bleomycin/g or PBS (vehicle control) on days 1, 4, 8, 11, 15, 18, 22, and 25. One week following the last injection, mice were sacrificed. Prior to removal, lungs were lavaged with 1.0 ml of PBS. Lungs were subsequently removed and inflated at 20 cm pressure. The left lobe of the lung was placed in 10% Formalin and prepared for immunohistochemical processing (Histotechniques, Powell, Ohio), and the right lobes were snap frozen in liquid nitrogen for RNA, collagen, and protein analyses.
Bronchoalveolar lavage (BAL) analysis: Following the bleomycin regimen (33 days), two instillations of 0.5 ml of PBS were performed, and the BAL fluid (BALF) was collected. The total number of cells isolated via BAL was calculated. BAL fluid was then centrifuged to pellet the cells, and the supernatant (BALF) was collected and stored for ELISA analyses. Cells were resuspended in 100 μl of PBS, cytospun on slides, stained, and analyzed under a microscope for cell differentials.

Where [1] appears, read: ets-2 (A72/A72) mice, n = 7, 0.035 U bleomycin/g IP.
The mark [2] stands for this setting: ets-2 (WT/WT) mice, n = 5, 0.035 U bleomycin/g IP.

Turning to bleomycin, under setting [1], the “Alveolar Macrophages” value is reported as 6.8 ± 1.4 ×10^4, the Lymphocytes is on record as 0.7 ± 0.6 ×10^4, the Neutrophils is 0.8 ± 0.6 ×10^4 and the Total cells is given as 8.3 ± 2.0 ×10^4. Besides, under setting [2], the “Alveolar Macrophages” value is listed as 12.0 ± 2.3 $ ×10^4, the Lymphocytes was 0 ×10^4, the Neutrophils is reported as 0 ×10^4 and the Total cells is 12.0 ± 2.3 # ×10^4.
